Consider 1 compound from patent US20210018841A1, “COMPOSITION FOR RESIST UNDERLAYER FILM FORMATION AND PATTERN FORMATION METHOD” (Mitsubishi Gas Chemical Company, Inc., priority 2018, published 2021).

The nature of the data set: Solubility in a safe solvent (PGMEA). Conditions: ultrasonic waves at 23° C. for 30 minutes, visually observed. Type of data set: physicochemical.

Description: The solubility of an obtained compound in a safe solvent (propylene glycol monomethyl ether acetate (PGMEA)) was evaluated as follows. The compound was precisely weighed in a test tube, and PGMEA was added to a predetermined concentration. Next, ultrasonic waves were applied at 23° C. for 30 minutes with an ultrasonic cleaning machine, and the subsequent state of the liquid was visually observed. The concentration (% by mass) at which the compound was completely dissolved was defined as the amount of dissolution. […] B: amount of dissolution was 3.0% by mass or more and 5.0% by mass or less. C: amount of dissolution was less than 3.0% by mass.

Consider `CCO[Te](OCC)(OCC)OCC` [TOX-1, tetraethoxytellurium(IV)], for which the “Solubility of tellurium containing compound” value was “A (amount of dissolution was 5.0% by mass or more)”.
